Measured values published in paper PMC5464627, “Design of short peptides to block BTLA/HVEM interactions for promoting anticancer T-cell responses” (PLoS ONE, 2017).
Positions of bridges follow the written chain, without caps; N, C: chain ends.

Tests used:
[1] = system: BTLA/HVEM interaction (BTLA-Fc coated, HVEM-Fc); experiment: Competitive BTLA/HVEM ELISA; format: binding, human; conditions: peptide or amino acid at 5, 1 and 0.1 mg/mL, 2 h at 37°C; relative to PBS (0%) and anti-BTLA 7.1 mAb (100%); at least two experiments in triplicate
Source text: (§1) The recombinant human BTLA protein used in affinity tests was purchased form Novoprotein (Company product code: C563). For ELISA, recombinant human BTLA-Fc, HVEM-Fc as well as anti-human BTLA (#7.1) blocking monoclonal antibody (mAb) and anti-human HVEM (#11.8) non-blocking mAb were described previously. Anti-HVEM mAb was biotinylated using the Biotin Labeling Kit-NH2 (Abnova, #KA0003), according manufacturer’s instruction.
96-well round bottom plates (medium binding; Greiner Bio-One) were coated with 400 ng/well of recombinant BTLA-Fc protein in PBS (50 μL/well) and incubated overnight at 4°C. Wells were washed twice with PBS-T (phosphate buffer saline with 0.1% Tween-20, pH 7.4) and blocked with 1% milk in PBS-T for 1 hour at 37°C. […] Maximum binding of HVEM to BTLA was controlled by adding 1% milk/PBS-T to negative control wells, whereas maximum inhibition was monitored by adding anti-BTLA 7.1 mAb (0.1 μg/well). Next, the plate was washed and incubated with recombinant HVEM-Fc protein at 400 ng/well in 1% milk/PBS-T for 1 hour at 37°C. Biotinylated anti-HVEM 11.8 antibody was then added (biotinylated preparation diluted at 1/10 000 in 1% milk/PBS-T) and incubated for 1 hour at 37°C. Streptavidin horseradish peroxidase (Dako) was finally added at a 1/8000 dilution in 1% BSA/PBS-T for 30 min at 37°C and detected with TMB (Biorad). The substrate reaction was blocked with 0.2 M H2SO4 and the absorbance was read at 450 nm and 630 nm. […] Statistical analysis of the results was performed using the one-way analysis of variance (one-way ANOVA).

[2] = system: 293T cells expressing BTLA, binding of rhHVEM-Fc; experiment: BTLA/HVEM interaction cell line assay (flow cytometry); format: cell-based; conditions: 293T cells expressing human BTLA pre-incubated with 5 mg/mL for 1 h at 4°C, then rhHVEM-Fc 8 μg/ml and AF647 anti-human IgG; at least two experiments in triplicate
Experimental: 293T cells expressing BTLA (generous gift from Dr. C. Krummenacher, University of Pennsylvania, USA) were maintained in culture with RPMI 10% FCS supplemented with 0.2 mg/ml hygromycin B. 2x10^5 293T cells expressing BTLA were incubated with […] 8μg/ml in PBS 0.5% BSA for 30min at 4°C. Cells were then washed and incubated with goat anti-human Fc conjugated with AF647 for 20min at 4°C (Jackson ImmunoResearch, #109-606-170). Inhibition of HVEM-BTLA binding by different peptides was assessed by pre-incubating the cells with the different peptides at 5 mg/ml for 1h at 4°C. BTLA expression was controlled by anti-BTLA APC-conjugated antibody (Biolegend, #344510). Maximum inhibition of binding was determined by adding anti-BTLA7.1 antibody for 1h at 4°C at 2μg/ml before adding […]. Sample acquisition was performed on the Gallios Flow-Cytometer (Beckman Coulter) and data were analyzed using the FlowJo Software (TreeStar).  Fig 7 Blocking capacity of HVEM(23-39) fragment and free amino acids in a cellular assay. 293T cells expressing human BTLA were incubated with peptides or free amino acids (5mg/mL) prior labeling with […] AF647-conjugated anti-human IgG antibody (at least two experiments in triplicate).

[3] = system: recombinant human BTLA protein; experiment: Microcolumn affinity test (BTLA-Sepharose, MALDI-MS of fractions); format: binding; conditions: for Interaction with BTLA immobilised in microcolumn (in words): BTLA-Sepharose microcolumn, 2 h at 25°C, pH 7.4, MS of elution fraction; for Elution [M+H]+1 (peptide signal in elution fraction = complex with BTLA formed; - = no signal): BTLA immobilised on NHS-Sepharose microcolumn, peptide incubated 2 h at 25°C in NH4HCO3 pH 7.4, eluted with 0.1% TFA, MALDI TOF/TOF
Experimental: as §1
The immobilization of BTLA protein in a microcolumn was performed using the NHS-activated acid-coupled Sepharose 4B (Sigma Aldrich). BTLA protein was dissolved in 100 μl of coupling buffer (0.2 M NaHCO3, 0.5 M NaCl, pH 8.3) and was added to 0.06 g NHS-activated Sepharose in 100 μl of coupling buffer. The coupling reaction was performed for 1 hour in 25°C and the mixture was transferred into the microcolumn (MoBiTec, Goettingen, Germany). The microcolumn with immobilized protein was washed alternately with 10 ml of solution blocking buffer (0.1 M amino ethanol, 0.5 M NaCl, pH 8.3) and washing buffer (0.1 M CH3COONa, 0.5 M NaCl, pH 4). This step was repeated 4 times. The microcolumn was stored in PBS (pH 7.4).
Peptide affinity assay using NHS-activated Sepharose microcolumn was already described elsewhere. The peptides were added onto BTLA-Sepharose column equilibrated in ammonium hydrogen carbonate (NH4HCO3, pH 7.4) and incubated for 2 h at 25°C with gentle shaking. After this time the unbound peptide was removed and the column was washed with […] NH4HCO3 and 20 ml of H2O. Dissociation of the protein—peptide complex was performed using 0.1% TFA in H2O (2 x 0.5 ml) by 15 minutes. All fractions were analyzed using mass spectrometry (MALDI TOF/TOF™ 5800, AB SCIEX).
Fig 2 Microcolumn affinity test. Microcolumn affinity test results for binding of HVEM(23–39) fragment to BTLA: (A) supernatant, (B) last wash and (C) elution fractions. The MS measurements were done with the use of MALDI TOF/TOF 5800 (ABSciex, Germany). As a matrix α-cyano-4-hydroxycinnamic acid (CHCA, 10 mg/ml, Sigma-Aldrich) was used. The measurements were done in reflector positive mass mode with previous mass calibration with commercial standard peptide mixture (The Peptide Mass Standards Kit for Calibration of AB SCIEX MALDI-TOF™ Instruments).

[4] = Ellman's assay of free thiols; format: physicochemical; conditions: for Presence of free thiol groups: DTNB, 0.1 M sodium phosphate pH 7.4, 1 mM EDTA, absorbance at 412 nm
Experimental: The presence of free thiols was investigated using Ellman’s assay. DTNB (Sigma Aldrich) was first dissolved in reaction buffer (0.1 M sodium phosphate, pH 7.4, containing 1 mM EDTA) at a concentration of 4 mg/ml. Then peptides and recombinant BTLA-Fc, alone or mixed together (ratio 1:1) were added in DTNB reaction buffer. After 15 minutes of incubation, the SH content of protein samples was then assessed by the measurement of absorbance at 412 nm. For each sample, the absorbance value from the blank was subtracted.

[5] = target: T1, recombinant human BTLA-Fc (human, UniProt Q7Z6A9 31-157); experiment: ELISA; competitive: BTLA-Fc coated at 400 ng/well; peptides in 1% milk/PBS-T 2 h at 37°C; washed; HVEM-Fc 400 ng/well 1 h at 37°C; detected with biotinylated anti-HVEM 11.8 and streptavidin-HRP; percent inhibition relative to anti-BTLA 7.1 mAb (100%) and buffer (0%); conditions: both partners purified
T1 construct: B and T lymphocyte attenuator (BTLA), human, fused to Fc; also called rhBTLA-Fc
T1 sequence (looked up): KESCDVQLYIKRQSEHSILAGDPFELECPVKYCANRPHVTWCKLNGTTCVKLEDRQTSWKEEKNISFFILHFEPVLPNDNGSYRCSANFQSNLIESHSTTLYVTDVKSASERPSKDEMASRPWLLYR

N[C@@H](CS)C(=O)O [cysteine, reference compound]
Inhibition of BTLA/HVEM ligation in ELISA (in words) [1]: prevented partially the binding of HVEM | Blocking of BTLA/HVEM binding in cellular assay (GMFI, in words) [2]: blocked BTLA/HVEM complex formation

N[C@@H](CSSC[C@H](N)C(=O)O)C(=O)O [cystine, reference compound]
Inhibition of BTLA/HVEM ligation in ELISA (in words) [1]: the inhibitory properties were not observed

CSCC[C@H](N)C(=O)O [methionine, reference compound]
Inhibition of BTLA/HVEM ligation in ELISA (in words) [1]: the inhibitory properties were not observed

Ac-ELCAGPVTRKVECTYGE-NH2 [Scrambled peptide, scrambled control of HVEM(23–39), Ac-…-NH2, reference compound]
Interaction with BTLA immobilised in microcolumn (in words) [3]: did not interact with BTLA immobilized in microcolumn | Inhibition of BTLA/HVEM ligation in ELISA (in words) [1]: has no effect | Presence of free thiol groups [4]: contains free thiol groups

Ac-ELTGTVCEP-NH2 [HVEM(31–39), 9 amino acid-long HVEM fragment 31–39]
Elution [M+H]+1 (peptide signal in elution fraction = complex with BTLA formed; - = no signal) [3]: 989.3 | Inhibition of BTLA/HVEM ligation in ELISA (in words) [1]: showed a lower percentage of inhibition than the HVEM(23–39)

Ac-ELTGTVS^37EP-NH2 [HVEM(31–39) C37S, HVEM(31–39) analog with Cys37 replaced by serine]
Inhibition of BTLA/HVEM ligation in ELISA (in words) [1]: no blocking capacity

Ac-YRVKEACGELTGTVCEP-NH2 (disulfide 7-15 (inferred); SMILES CC(=O)N[C@@H](Cc1ccc(O)cc1)C(=O)N[C@@H](CCCNC(=N)N)C(=O)N[C@H](C(=O)N[C@@H](CCCCN)C(=O)N[C@@H](CCC(=O)O)C(=O)N[C@@H](C)C(=O)N[C@H]1CSSC[C@@H](C(=O)N[C@@H](CCC(=O)O)C(=O)N2CCC[C@H]2C(N)=O)NC(=O)[C@H](C(C)C)NC(=O)[C@H]([C@@H](C)O)NC(=O)CNC(=O)[C@H]([C@@H](C)O)NC(=O)[C@H](CC(C)C)NC(=O)[C@H](CCC(=O)O)NC(=O)CNC1=O)C(C)C) [HVEM(23–39) (C29-C37), cyclic HVEM(23–39) with disulfide bridge, oxidized cysteines]
Elution [M+H]+1 (peptide signal in elution fraction = complex with BTLA formed; - = no signal) [3]: 1893.9 | Interaction with BTLA immobilised in microcolumn (in words) [3]: interacted with BTLA in affinity test | Inhibition of BTLA/HVEM ligation in ELISA (in words) [1]: no blocking of BTLA/HVEM interaction was observed

Ac-YRVKEACGELTGTVCEP-NH2 [HVEM(23–39), HVEM fragment 23–39, Ac-…-NH2, free sulfhydryl groups]
Interaction with BTLA immobilised in microcolumn (in words) [3]: complex between BTLA and HVEM(23–39) was formed | Inhibition of BTLA/HVEM ligation in ELISA (in words) [1]: can partially prevent the ligation of HVEM to BTLA, in a dose dependent manner | Blocking of BTLA/HVEM binding in cellular assay (GMFI, in words) [2]: almost no blocking of the BTLA/HVEM binding was observed | Presence of free thiol groups [4]: observed free thiol groups | Concentration of free thiol groups after 2 hours of incubation, peptide alone ([4]; Ellman's assay, pH 7.4, peptide alone, 2 hours, suggests a fraction of the peptide is oxidized): lower | Concentration of free thiol groups over time, peptide incubated with BTLA-Fc ([4]; Ellman's assay, pH 7.4, peptide mixed with recombinant BTLA-Fc (ratio 1:1)): decrease in the concentration of free thiol groups over time, which was more pronounced than in the condition where the peptide was alone

Ac-YRVKEAS^29GELTGTVCEP-NH2 [HVEM(23–39) C29S, HVEM(23–39) analog with Cys29 replaced by serine]
Elution [M+H]+1 (peptide signal in elution fraction = complex with BTLA formed; - = no signal) [3]: 1879.7

Ac-YRVKEAY^29GELTGTVCEP-NH2 [HVEM(23–39) C29Y, HVEM(23–39) analog with Cys29 replaced by tyrosine]
Elution [M+H]+1 (peptide signal in elution fraction = complex with BTLA formed; - = no signal) [3]: 1955.7

C29A: single alanine-substituted HVEM(23–39) variant, cysteine 29 replaced by alanine (Ac-YRVKEAAGELTGTVCEP-NH2)
Inhibition of BTLA/HVEM ligation in ELISA (in words) [1]: significant reduction of the inhibition

C37A: single alanine-substituted HVEM(23–39) variant, cysteine 37 replaced by alanine (Ac-YRVKEACGELTGTVAEP-NH2)
Inhibition of BTLA/HVEM ligation in ELISA (in words) [1]: significant reduction of the inhibition

B1: HVEM(31–39) (peptide)
peptide: Ac-ELTGTVCEP-NH2
notes: herpes virus entry mediator (HVEM), human, residues 31-39; also called HVEM (31–39) fragment; source: synthetic peptide (SPPS, RP-HPLC purified)
binding result [5]: binds

B2: HVEM(23–39) peptide (peptide)
peptide: YRVKEACGELTGTVCEP
modifications: not fully specified; N-terminal acetyl (Ac-); C-terminal amide (-NH2)
notes: herpes virus entry mediator (HVEM), human, residues 23-39 of the CRD1 domain; Linear, with two free sulfhydryl groups; also called HVEM(23–39) fragment; wild-type peptide HVEM(23–39); source: synthetic peptide (SPPS, RP-HPLC purified)
binding result [5]: binds
